# Experimental data reported in ChEMBL document CHEMBL6134925, “Novel Pyrrolidinone Urea as FPR2 Agonists for Treating Atherosclerosis and Heart Failure” (ACS Med Chem Lett, 2025).
# Target: T1, N-formyl peptide receptor 2 (Homo sapiens, UniProt P25090)
# T1 sequence (P25090 whole entry): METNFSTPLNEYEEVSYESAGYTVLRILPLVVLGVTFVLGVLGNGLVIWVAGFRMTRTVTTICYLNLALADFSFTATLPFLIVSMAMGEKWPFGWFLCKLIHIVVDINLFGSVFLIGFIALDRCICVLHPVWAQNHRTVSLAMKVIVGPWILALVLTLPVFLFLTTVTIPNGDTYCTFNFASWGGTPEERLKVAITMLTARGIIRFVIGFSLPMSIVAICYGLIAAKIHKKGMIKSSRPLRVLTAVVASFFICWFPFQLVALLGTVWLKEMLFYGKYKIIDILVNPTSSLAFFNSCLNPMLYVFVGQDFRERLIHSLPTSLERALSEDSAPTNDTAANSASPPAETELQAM
# Test: Agonist activity at human FPR2 receptor expressed in CHO cells assessed as forskolin/IBMX-induced intracellular cAMP level incubated for 30 mins by HTRF HiRange cAMP assay
# Assay type: functional, cell-based
row,SMILES,EC50 [nM]
1,CN(C)[C@@H]1CCN(c2ccc(N3CC[C@@H](NC(=O)Nc4ccc(C(F)(F)F)cc4)C3=O)c(F)c2F)C1,0.21
2,O=C(Nc1ccc(C(F)(F)F)cc1F)NC1CCN(c2c(F)cc(N3CCCS3(=O)=O)cc2F)C1=O (stereo unspecified),7.2
3,CN[C@@H]1CCN(c2ccc(N3CCC(NC(=O)Nc4ccc(Cl)cc4)C3=O)c(F)c2F)C1 (stereo partly specified),5.6
4,CN(CCO)[C@@H]1CCN(c2ccc(N3CCC(NC(=O)Nc4ccc(Cl)cc4)C3=O)c(F)c2F)C1 (stereo partly specified),0.27
5,O=C(Nc1ccc(Cl)cc1F)NC1CCN(c2c(F)cc(N3CCCS3(=O)=O)cc2F)C1=O (stereo unspecified),4.4
6,CN(C)[C@@H]1CCN(c2ccc(N3CC[C@@H](NC(=O)Nc4ccc(Cl)cc4)C3=O)c(F)c2F)C1,0.19
